Measured values published in patent publication US20240293566A1, “ANTI-EGFRvIII ANTIBODY DRUG CONJUGATES AND USES THEREOF” (Regeneron Pharmaceuticals, Inc., priority 2021, published 2024).

Columns and labels:
[1] = system: U251MG/hEGFRvIII in coculture; test: Bystander killing assay, 1:1 coculture, far red positive population; format: cell-based, human; settings: 6 days
Description: Bystander killing by an ADC can take place when the cytotoxic payload is released from the target cells and is then taken up by surrounding antigen-negative (bystander) cells. […] Cells were subsequently treated with 3 ug/mL of Hoechst 33342 nuclear stain (ThermoFisher, #H3570) while being fixed with 4% formaldehyde (ThermoFisher, #28908). Images were acquired on the Opera Phenix Microscope (PerkinELmer). All cells were identified by the Hoechst-labeled nuclei and cell counts were separated into far red positive U251 MG/hEGFRvIII cells (U251 in coculture) and far red negative parental U251 MG cell populations via Harmony image analysis software (PerkinELmer). Cell viability was determined separately for each cell population and expressed as a percentage of the untreated (100% viable) cells.

[2] = system: U251 MG/hEGFRvIII cells; test: In vitro cytotoxicity (nuclear counts after 6-day treatment), mono-culture; format: cell-based, human
Excerpt: (§1) To determine the relative cell-killing potency of anti-EGFRvIII antibody drug conjugates of the invention, cell-killing assays were run on a cell line expressing human EGFRvIII. To develop the cell line, Lipofectamine LTX with Plus Reagent was used to generate U251 cells (Sigma, #9063001) expressing human EGFRvIII (hEGFRvIII; amino acids 1 through 380 of accession number NP_005219.2 with a deletion of amino acids 30 through 297 and creation of a junctional glycine residue, i.e. SEQ ID NO: 25) here in referred to as U251 MG/hEGFRvIII. The U251 lines were maintained in complete growth media (MEM Earle's Salts+10% FBS+1% L-glutamine/penicillin/streptomycin+1% non-essential amino acids+sodium pyruvate).
(§2) To measure the in vitro cytotoxicity of anti-EGFRvIII antibody drug conjugates, nuclear counts after a 6-day treatment with the antibody drug conjugates were assessed. […] Nuclear counts were determined via Harmony image analysis software (PerkinELmer), and cell viability was expressed as a percentage of the untreated (100% viable) cells. IC50 values were determined using a four-parameter logistic equation over a 10-point dose response curve (GraphPad Prism). The maximum % kill was also determined for each test article as follows: 100-minimum percent viability.

[3] = system: U251MG in coculture; test: Bystander killing assay, 1:1 coculture, far red negative population; format: cell-based; settings: 6 days
Description: Bystander killing by an ADC can take place when the cytotoxic payload is released from the target cells and is then taken up by surrounding antigen-negative (bystander) cells. […] A 1:1 coculture of 1500 cells/well of far red labeled U251 MG/hEGFRvIII cells and 1500 cells/well unlabeled U251 MG cells were incubated with either ADC or free payload M31 at a range of concentrations (100 nM to 1.5 pM) for 6 days. Cells were subsequently treated with 3 ug/mL of Hoechst 33342 nuclear stain (ThermoFisher, #H3570) while being fixed with 4% formaldehyde (ThermoFisher, #28908). Images were acquired on the Opera Phenix Microscope (PerkinELmer). All cells were identified by the Hoechst-labeled nuclei and cell counts were separated into far red positive U251 MG/hEGFRvIII cells (U251 in coculture) and far red negative parental U251 MG cell populations via Harmony image analysis software (PerkinELmer). Cell viability was determined separately for each cell population and expressed as a percentage of the untreated (100% viable) cells.

[4] = system: U251 MG parental cells; test: In vitro cytotoxicity (nuclear counts after 6-day treatment), mono-culture; format: cell-based
Excerpt: as §1, §2

[5] = system: U251/EGFRvIII xenografts; test: Subcutaneous U251/EGFRvIII xenograft, comparison with COMP-MMAF (Example 11); format: in vivo, SCID mice; settings: for Tumor growth (mm^3) from start of treatment (mean ± SD) / Tumor volume (mm^3) at termination of vehicle group (mean ± SD): Day 36 post-treatment
Description: For the initial xenograft study, U251/EGFRvIII tumors were established by the subcutaneous implantation of 10×10^6 cells mixed 1:1 with Matrigel on the right flank of male SCID mice. Tumors were grown to ˜175 mm^3 before treatment initiation, approximately 30 days post-implantation. Mice were randomized into groups of 8 and treated with a single dose of test or control ADCs. Tumor growth was monitored for 71 days post-treatment.

[6] = system: Orthotopically placed GBM59 GBM PDX tumors; test: Intracranial orthotopic GBM59 PDX survival, comparison with COMP-MMAF (Example 11); format: in vivo, mice
Description: Intracranial injection was performed at 1 mm anterior and 2 mm lateral to the bregma at a depth of 3 mm. All orthotopic GBM PDX studies were conducted by Translational Drug Development Inc. Orthotopic GBM59 PDX were allowed to establish for 25 days before mice were randomized into groups of 8 and treated with a single dose of test or control ADCs. Mice were monitored for 94 days for signs of peri-morbidity and euthanized prior to reaching a moribund state.

`COc1cc2c(cc1OCCCCCOc1cc3c(cc1OC)C(=O)N1C=C(C)C[C@H]1C=N3)N=C[C@@H]1CC(C)=CN1C2=O` [SG3199] was tested, and the “% Kill (maximum)” value [1] was 91%, the IC50 ([1]; Homo sapiens, U-251, 144 h) was 10 pM and the IC50 ([2]; Homo sapiens, U-251, 144 h) was 10 pM. The “% Kill (maximum)” value ([2]; U251MG/hEGFRvIII mono-culture, 6 days) was 92%, the “% Kill (maximum)” value [3] was 94% and the IC50 ([3]; Homo sapiens, U-251, 144 h) was 7 pM. For the same molecule, the IC50 ([4]; Homo sapiens, U-251, 144 h) was 2 pM and the “% Kill (maximum)” value ([4]; U251MG mono-culture, 6 days) was 93%.

“COMP-MMAF: ABT-414 (hu806) antibody conjugated to monomethyl auristatin F (MMAF) via non-cleavable linker” was tested, and the “Anti-tumor activity” value ([5]; COMP-MMAF 2.5 mg/kg) was “Activity against tumors was seen”, the “Anti-tumor activity” value ([5]; COMP-MMAF 5 mg/kg, 71 days post-dosing) was “sustained activity similar to that resulting from treatment with REGN3124-tesirine” and the “Tumor growth (mm^3) from start of treatment (mean ± SD)” value (“Tumor growth … (mean ± SD)” for short) ([5]; ADC dose 1 mg/kg) was 423 ± 324 mm^3. For the same molecule, the “Tumor volume (mm^3) at termination of vehicle group (mean ± SD)” value (“Tumor volume … (mean ± SD)” for short) ([5]; ADC dose 1 mg/kg) was 595 ± 325 mm^3, the “Tumor growth … (mean ± SD)” value ([5]; ADC dose 2.5 mg/kg) was 6 ± 36 mm^3 and the “Tumor volume … (mean ± SD)” value ([5]; ADC dose 2.5 mg/kg) was 183 ± 51 mm^3. For the same molecule, the “Tumor growth … (mean ± SD)” value ([5]; ADC dose 5 mg/kg) was −36 ± 22 mm^3, the “Tumor volume … (mean ± SD)” value ([5]; ADC dose 5 mg/kg) was 136 ± 16 mm^3 and the “Anti-tumor activity” value ([5]; REGN3124-tesirine 0.53 mg/kg ADC (7 ug/kg PBD payload), COMP-MMAF 1 mg/kg, isotype controls all dose levels) was “Sustained regression was not observed”. For the same molecule, the “N = 8 survival at Day 94” value ([6]; ADC dose 1 (mg/kg)) was 0/8, the “median survival” value ([6]; ADC dose 1 (mg/kg)) was 13.5 days and the “N = 8 survival at Day 94” value ([6]; ADC dose 5 (mg/kg), MMAF ADCs) was 0/8. The “median survival” value ([6]; ADC dose 5 (mg/kg), MMAF ADCs) was 23.5 days, the “Effect on survival relative to the MMAF control” value ([6]; COMP-MMAF 5 mg/kg) was “some increase in survival” and the “Time within which all mice succumbed to tumor burden” value ([6]; COMP-MMAF 5 mg/kg) was ≤ 35 days of treatment. The “Effect on survival” value ([6]; REGN3124-tesirine DAR 1.9, 7 ug/kg payload, COMP-MMAF 1 mg/kg, controls) was “did not induce a significant increase in survival”.
